Structures can show the parent of a compound that is named as a salt. Where two headings read alike, the source gives them in different places.
Key:
[1] = Unbound fraction in RT-S9 by rapid equilibrium dialysis; format: in vitro ADME, rainbow trout (Oncorhynchus mykiss); conditions: 10 µM test substance, 1 mg/mL RT-S9, pH 7.8, 11°C, n = 3, read-out: Unbound fraction (fU,RT-S9)
Experimental: The unbound (free) fractions of the test substances in RT-S9 (fU,RT-S9) were determined using rapid equilibrium dialysis assay (RED, Thermo Fisher Scientific), which exploits two-compartment inserts separated by a dialysis membrane with a molecular weight cut-off of 8,000 Da. In the RED assay, each test pharmaceutical (10 μM) was incubated in triplicate with RT-S9 (1 mg/mL) in 50 mM potassium phosphate buffer (pH 7.8) in a total volume of 300 µL on one side of the membrane (protein-containing chamber), and 350 μL of the plain phosphate buffer on the other side (protein-free chamber). To reach equilibrium, the samples were incubated on an orbital shaker (C25KC Incubator shaker, New Brunswick Scientific, 120 rpm) at 11°C for 4 h. Next, 50 µL aliquots were collected from both chambers separately and diluted by adding 50 µL of the plain buffer (to the protein-containing sample) or 50 μL of 1 mg/mL RT-S9 in the buffer (to the protein-free sample). Finally, the RT-S9 protein was precipitated by the addition of acetonitrile (+200 μL) to both samples separately, followed by incubation on ice for 30 min and centrifugation (16100 g, 15 min). The test substance concentrations in the supernatants of both samples were determined using liquid chromatography. The instrumentation and the analytical methods used for chromatographic analyses are described in detail in the Supplementary Table S2. The unbound fractions of the test substances in RT-S9 (fU,RT-S9) were calculated according to Eq. 3: fU,RT−S9=1− PC−PF/PC (3) where [PC] and [PF] are the test substance concentrations in the samples collected from protein-containing and protein-free chambers, respectively. To account for the test substance’s binding to the RT-S9, the nominal IC50 values were corrected for unbound fraction (fU,RT-S9) according to Eq. 4: Unbound IC50=Nominal IC50×fU,RT−S9 (4)

[2] = design: method as in PubChem; conditions: (e) empirical; ref PubChem; cited from earlier work
Human CYP1A = conditions: ref Drugbank unless otherwise stated (Dragovic et al., 2013; Conard and Ober 1984; Niwa et al., 2005); cited from earlier work
[3] = test system: CYP1A-like ethoxyresorufin O-deethylase (EROD) activity; test: in vitro; conditions: both, Christophersen, Bornhoeved, rainbow trout (Oncorhynchus mykiss); for inhibition at 10 min: pH 7.8
Experimental: (§1) Commercially available rainbow trout (O. mykiss) liver S9 fractions were used as the enzyme source for the in vitro P450 inhibition assays (RTL-S9, total protein concentration 20 mg/mL, Primacyt Cell Culture Technology GmbH).
(§2) The inhibitory impacts of the test substances toward the rainbow trout liver P450 system in vitro were assessed based on EROD and BFCOD as the marker reactions for CYP1A- and CYP3A-like isoenzyme activities, respectively. […] In this study, the EROD (CYP1A) and BFCOD (CYP3A) activities were determined using 0.5 mg/mL RT-S9 (total protein) concentration and 1 or 2 mM NADPH, respectively. […] All incubations were performed in duplicate in a total volume of 100 µL of potassium phosphate buffer (0.1 M, pH 7.8), at 11°C ± 1°C on a thermostated orbital shaker (LLG Labware). The reactions were terminated by the addition of 37.5 μL of the quenching solution (0.5 M Trizma base/acetonitrile 20:80, v/v). […] The quantitation of the metabolites (resorufin or HFC) was based on linear regression of the respective standards prepared in the potassium phosphate buffer. Negative control incubations were performed separately without the marker substrate, without cofactors, and without RT-S9 to ensure that the detected fluorescence signals arise from the metabolic conversion of the marker substrates (ER or BFC) into their respective metabolites (resorufin or HFC, respectively).
(§3) In this study, the preincubation was performed using three different protocols A-C (Table 2). In the first protocol, the test substance (each separately at six different concentrations between 0.01 and 500 µM) and RT-S9 were preincubated without any cofactors, and the marker reaction was initiated by the addition of the marker substrate (ER or BFC) and NADPH (Protocol A). This enabled the determination of the inhibitory impact of the parent form of the test substance on the respective marker activity. In the second protocol, the test substance and RT-S9 were preincubated together with NADPH, and the marker reaction was initiated by the addition of the marker substrate (Protocol B). In this manner, the test substance could undergo P450 metabolism already during the preincubation step, which may reduce its concentration and thus the inhibitory impact toward the marker reactions, or result in the formation of reactive or inhibitory metabolites, which typically increases the inhibitory impact compared with the parent form (Protocol A). […] In this manner, the test substance could undergo both P450 and phase II metabolism already during the preincubation step, which may likewise reduce its concentration and inhibitory impact toward the marker reactions, and even help eliminate the possible reactive metabolites via glutathione conjugation. […] Additionally, positive control incubations of the marker substrates (ER or BFC) without the test substance (zero inhibitor concentration) were included in each series to determine the basal EROD or BFCOD activity in RT-S9.
(§4) The residual solvent concentration was kept constant at all inhibitor concentrations, including zero, to eliminate its impact on the IC50 concentrations derived from the empirical data. The IC50 shifts for Protocols B and C were calculated according to Eq. 2: IC50 shift=IC50,Protocol A/IC50,Protocol B or Protocol C (2)
(§5) In this manner, the impact of the test substance’s own metabolism (during the preincubation step) on the inhibitory impact could be evaluated.

[4] = target: T1, CYP3A-like BFCOD activity (Oncorhynchus mykiss, UniProt O42563); test: BFCOD inhibition in RT-S9 (IC50 shift assay); conditions: both, Christophersen, Bornhoeved, rainbow trout (Oncorhynchus mykiss)
T1 sequence (O42563 1-518): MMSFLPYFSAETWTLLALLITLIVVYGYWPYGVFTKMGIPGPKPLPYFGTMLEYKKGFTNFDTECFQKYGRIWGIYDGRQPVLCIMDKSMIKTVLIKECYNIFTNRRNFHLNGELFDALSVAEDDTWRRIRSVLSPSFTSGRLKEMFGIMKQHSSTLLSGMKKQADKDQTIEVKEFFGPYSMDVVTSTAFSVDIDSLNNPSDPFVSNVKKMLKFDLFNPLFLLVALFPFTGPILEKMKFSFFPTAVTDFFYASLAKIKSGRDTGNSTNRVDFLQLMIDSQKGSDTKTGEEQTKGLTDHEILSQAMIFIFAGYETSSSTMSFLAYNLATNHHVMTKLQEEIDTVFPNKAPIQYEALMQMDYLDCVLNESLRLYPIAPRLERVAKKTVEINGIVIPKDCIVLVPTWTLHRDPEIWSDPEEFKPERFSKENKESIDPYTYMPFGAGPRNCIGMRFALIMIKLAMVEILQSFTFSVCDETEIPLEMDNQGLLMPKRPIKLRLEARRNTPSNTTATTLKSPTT
Experimental: as §1, §2, §3, §4, §5

[5] = test system: CYP1A-like ethoxyresorufin O-deethylase (EROD) activity in rainbow trout liver S9 fractions; test: EROD inhibition in RT-S9 (IC50 shift assay)
Experimental: as §1, §2, §3, §4, §5

[6] = target: T2, CYP3A-like 7-benzyloxy-4-trifluoromethylcoumarin O-debenzylase (BFCOD) activity in rainbow trout liver S9 fractions (Oncorhynchus mykiss, UniProt O42563); test: BFCOD inhibition in RT-S9 (IC50 shift assay); conditions: within the tested concentration range
T2 sequence (O42563 1-518): T1 sequence (O42563 1-518)
Experimental: as §1, §2, §3, §4, §5

Human CYP3A = conditions: cited from earlier work; for Human CYP3A interactions: substrate status: ref Drugbank unless otherwise stated (Dragovic et al., 2013; Niwa et al., 2005)
CYP1A-like EROD activity = test: in vitro; conditions: both, Christophersen, Bornhoeved, rainbow trout (Oncorhynchus mykiss)
Experimental: as §1, §2, §3, §4, §5

[7] = rainbow trout liver S9 fractions (RT-S9)
[8] = pH 7.8, EROD inhibition in RT-S9, Nominal IC50
[9] = pH 7.8, EROD inhibition in RT-S9, Unbound IC50
[10] = s9, pH 7.8, BFCOD inhibition in RT-S9, Nominal IC50, Protocol B: 30 min preincubation w/NADPH (2 mM)
[11] = s9, pH 7.8, BFCOD inhibition in RT-S9, Nominal IC50, Protocol C: 30 min preincubation w/all cofactors (NADPH, UDPGA, PAPS, glutathione)

For CCN(CC)C(=S)SSC(=S)N(CC)CC [Disulfiram, disulfiram], the fraction unbound at 4 h, 10 µM ([1]; rainbow trout (Oncorhynchus mykiss), rainbow trout liver S9 fractions (RT-S9)) is listed as greater than 0.9, the fraction unbound at 4 h, 10 µM [1, 7] is listed as 0.91 ± 0.42 and the LogKOW [2] is listed as 3.88 (e).

For CN1CCN(C2=Nc3cc(Cl)ccc3Nc3ccccc32)CC1 [Clozapine, clozapine], the “Human CYP1A interactions: substrate status” value (Human CYP1A) is listed as “Substrate”, the inhibition at 10 min [3] is listed as greater than 50% and the IC50 at 10 min [3, 8] is listed as 46 ± 9 µM. The IC50 at 10 min [3, 9] was roughly 10 µM, the fraction unbound at 4 h, 10 µM [1, 7] was 0.21 ± 0.05 and the LogKOW [2] was 3.23 (e). It also gave an inhibition at 20 min ([4]; s9, pH 7.8) of no more than 50%, an IC50 at 20 min ([4]; s9, pH 7.8, BFCOD inhibition in RT-S9, Nominal IC50, Protocol A: 30 min preincubation without cofactors, extrapolated) greater than 100 µM and an IC50 at 20 min [4, 10] greater than 100 µM. For the same compound, the IC50 at 20 min [4, 11] was greater than 100 µM and the IC50 at 20 min ([4]; s9, pH 7.8, BFCOD inhibition in RT-S9, Unbound IC50, nominal IC50 of Protocol A × fU,RT-S9 (Eq. 4)) was 10 to 30 µM.

For Cc1ncsc1CCCl [Clomethiazole, clomethiazole hydrochloride], the “EROD inhibition in RT-S9 (in words)” value ([5]; within the tested concentration range) was “did not significantly inhibit”, the “EROD inhibition in RT-S9 (in words)” value ([5]; within the tested concentration range, listed as Chlomethiazole) was “no significant EROD inhibition” and the fraction unbound at 4 h, 10 µM ([1]; rainbow trout (Oncorhynchus mykiss)) was greater than 0.9. The “BFCOD inhibition in RT-S9 (in words)” value [6] was “did not significantly inhibit” and the “Human CYP3A interactions: substrate status” value (Human CYP3A) was “Substrate”.

For COc1cc2nc(N3CCN(C(=O)c4ccco4)CC3)nc(N)c2cc1OC [Prazosin, prazosin hydrochloride], the inhibition at 10 min [3] was greater than 50%, the IC50 at 10 min [3, 8] was 21 ± 2 µM and the “EROD inhibition in RT-S9 (in words)” value [5] was “inhibited selectively only EROD activity”. The IC50 at 20 min ([4]; s9, pH 7.8) was greater than 25 µM.

In the case of OCCOCCN1CCN(C2=Nc3ccccc3Sc3ccccc32)CC1 [Quetiapine, quetiapine hemihumarate], the fraction unbound at 4 h, 10 µM [1, 7] is given as 0.24 ± 0.06 and the LogKOW [2] is given as 2.81 (e).

Work on Clc1ccc2c(c1)CCc1cccnc1C2=C1CCNCC1 [Desloratadine, desloratadine] yielded a fraction unbound at 4 h, 10 µM [1, 7] of 0.15 ± 0.03.

In the case of CCNC(=O)CCC/C=C\C[C@@H]1[C@@H](/C=C/[C@@H](O)CCc2ccccc2)[C@H](O)C[C@@H]1O [Bimatoprost, bimatoprost], the LogKOW [2] is given as 3.2 (e), the “BFCOD inhibition in RT-S9 (in words)” value [6] is given as “did not significantly inhibit” and the “Human CYP3A interactions: substrate status” value (Human CYP3A) is given as “Substrate”.

Compound CN1CCCC(n2nc(Cc3ccc(Cl)cc3)c3ccccc3c2=O)CC1 (stereo not drawn) [Azelastine, azelastine hydrochloride] has an inhibition at 10 min [3] greater than 50%, an IC50 at 10 min [3, 8] of 28 ± 2 µM and an IC50 at 10 min [3, 9] of 3.8 ± 0.5 µM. It also gave a fraction unbound at 4 h, 10 µM [1, 7] of 0.14 ± 0.01, an IC50 at 20 min ([4]; s9, pH 7.8) greater than 100 µM and an inhibition at 20 min ([4]; s9, pH 7.8) of no more than 50%. The IC50 at 20 min [4, 10] was greater than 100 µM, the IC50 at 20 min [4, 11] was greater than 100 µM and the “Human CYP3A interactions: inhibitor status” value (Human CYP3A; ref Drugbank unless otherwise stated (Cohen et al., 2000; Guo et al., 1997; Niwa et al., 2005)) was “Inhibitor (m)”.

For Cc1ccccc1C(OCCN(C)C)c1ccccc1 (stereo not drawn) [Orphenadrine, orphenadrine citrate], the fraction unbound at 4 h, 10 µM [1, 7] is listed as 0.27 ± 0.05 and the LogKOW [2] is listed as 3.77 (e).

For COc1ccc2nc([S@@+]([O-])Cc3ncc(C)c(OC)c3C)[nH]c2c1 [Esomeprazole, esomeprazole magnesium hydrate], the inhibition at 10 min [3] was greater than 50%, the IC50 at 10 min [3, 9] was 3 ± 0.8 µM and the IC50 shift at 10 min (CYP1A-like EROD activity; s9, pH 7.8, EROD inhibition in RT-S9, IC50 shift (A/B)) was 2.3 ± 0.7. For the same compound, the IC50 shift at 10 min (CYP1A-like EROD activity; s9, pH 7.8, EROD inhibition in RT-S9, IC50 shift (A/C)) was 1.7, the fraction unbound at 4 h, 10 µM [1, 7] was 0.36 ± 0.08 and the IC50 at 20 min ([4]; s9, pH 7.8) was greater than 100 µM. For the same compound, the inhibition at 20 min ([4]; s9, pH 7.8) was no more than 50%, the IC50 shift at 20 min ([4]; s9, pH 7.8, BFCOD inhibition in RT-S9, IC50 shift (A/B), IC50 Protocol A / IC50 Protocol B, TDI if ≥1.5) was 1.2 ± 0.2 and the IC50 shift at 20 min ([4]; s9, pH 7.8, BFCOD inhibition in RT-S9, IC50 shift (A/C), IC50 Protocol A / IC50 Protocol C) was 0.8. The IC50 at 20 min [4, 10] was greater than 100 µM, the IC50 at 20 min [4, 11] was greater than 100 µM and the “Human CYP3A interactions: substrate status” value (Human CYP3A) was “Substrate”.

For CCN1CCCC1CNC(=O)c1cc(S(N)(=O)=O)ccc1OC (stereo not drawn) [Sulpiride, sulpiride], the “BFCOD inhibition in RT-S9 (in words)” value [6] was “did not significantly inhibit”.

For CC(C)c1c(C(=O)Nc2ccccc2)c(-c2ccccc2)c(-c2ccc(F)cc2)n1CC[C@@H](O)C[C@@H](O)CC(=O)O [Atorvastatin, atorvastatin calcium trihydrate], the LogKOW [2] is listed as 6.36 (e).
